{
  "source": "paper PMC5142287",
  "about": "“Weight control interventions improve therapeutic efficacy of dacarbazine in melanoma by reversing obesity-induced drug resistance” (Cancer & Metabolism, 2016)",
  "key": {"B16F1 cells": {"system": "B16F1 cells", "test": "Long-term survival assay, B16F1 cells in CM from 3T3-L1 cells", "type": "cell-based, Murine", "excerpt": "Additional file 1: Table S1. Composition of diets used in the study. Normal diet (ND) was procured from Amrut Laboratory Animal Feed, Pune, India, and high fat diet (HFD) was purchased from Provimi Animal Nutrition Pvt. Ltd., Bangalore, India. *, HFD was also supplemented with 400 g groundnut and 200 g dried coconut per kg body weight of mice. […] Obesity-associated parameters in the experimental ND mice recorded at the end of the experiment. ND male C57BL/6J mice were divided into two major groups. One group was orally treated with orlistat every alternate day before inoculating with B16F10 cells. The second group was orally given vehicle control on every alternate day for 8 weeks. Mice from both the groups (N = 11 per each group) were injected (s.c.) with B16F10 cells (2 × 10^5 cells/mouse in 100 μl PBS). Their body weight was monitored weekly throughout the study, and serum was collected at the end of the experiment. Blood glucose, serum TG, serum cholesterol, serum-free fatty acids, and serum LDLc were measured. Serum factors including leptin, adiponectin, insulin, resistin, IL-6, and TNF-α were estimated by ELISA. […] Effect of obesity-associated serum factors on the protein level of P-gp, Cav-1, and FASN in B16F1 cells. […] Thereafter, these cells were subjected to immunofluorescence confocal staining of the indicated molecules. The data were recorded using Zeiss LSM510 META Confocal Microscope. (Scale bar = 20 μm). […] Data were acquired on FACS Calibur and analyzed using BD CellQuest Pro software. The data are representative of experiments performed three times. (PDF 120 kb) Additional file 5: Figure S3. Effect of inhibition of FASN, Cav-1, and P-gp on response of B16F1 cells to DTIC. […] Thereafter, these cells were subjected to long-term survival assay. […] The medium was changed every 2–3 days."}, "[1]": {"test": "Obesity-associated factors in B16F10-isografted HFD C57BL/6J mice (body weight, blood glucose, serum lipids, ELISA)", "type": "in vivo", "conditions": "end of experiment, mean ± SD", "excerpt": "C57BL/6J mice were procured from Experimental Animal Facility (EAF) at National Centre for Cell Science (NCCS), Pune, India. High fat diet (24% fat) was purchased from Provimi Animal Nutrition Pvt. Ltd., Bangalore, India, and normal diet (5% fat) was obtained from Amrut Laboratory, Pune, India. The compositions of diets are provided in supplementary data (Additional file 1: Table S1). Diet-induced obesity was developed in the mice by feeding them with high fat diet as described previously. Male C57BL/6J mice (6–8 weeks old) were divided into normal diet (ND) and high fat diet (HFD) group. ND group was fed with normal diet while HFD group was fed with high fat diet supplemented with ground nut and dried coconut for 6 months. Body weight and serum chemistry profile were measured monthly to verify obesity-associated changes. Water and food were provided ad libitum to all the mice. All animal experiments were carried out as per the requirement and guidelines of the Committee for the Purpose of Control and Supervision of Experiments on Animals (CPCSEA), Government of India, and after obtaining permission of the Institutional Animal Ethics Committee (IAEC).\nBlood glucose levels and serum lipids were estimated as described previously. Insulin, leptin, and adiponectin levels in the serum were estimated by mouse-specific respective ELISA kits as described. Resistin, IL-6, and TNF-α levels in the serum were detected by indirect ELISA as described previously.\nTo study the impact of diet-induced obesity on the outcome of DTIC therapy in melanoma, we treated B16F10 melanoma isografted obese mice with DTIC purchased from Sigma, USA (80 mg/kg intraperitoneally for five consecutive days as described previously). In addition, to look into the impact of weight loss interventions on the outcome of DTIC therapy in obese mice, mice were administered with orlistat (an antiobesity drug known to inhibit gastrointestinal lipases) and/or shifted from high fat to normal diet followed by DTIC treatment. The detailed experimental plan is illustrated in Fig. 1a. Briefly, obese mice were administered orally with orlistat (10 mg/kg on every alternate day) purchased from Enzo Life Sciences, NY, USA, and/or shifted from high fat diet to normal diet. HFD C57BL/6J mice treated with vehicle or orlistat were termed as HFD-HFD Ctrl and HFD-HFD Orli (N = 11 per each group), respectively, whereas HFD C57BL/6J mice shifted to normal diet and treated with vehicle or orlistat were grouped as HFD-ND Ctrl and HFD-ND Orli (N = 11 per each group), respectively. After 15 days, these mice were injected subcutaneously (s.c.) with B16F10 cells (2 × 10^5) in 100 μl of PBS and monitored daily for the presence of palpable tumors and dimensions were recorded on alternate days. […] Tumor volume was calculated using the formula 0.52 × length × width^2 and was followed up throughout the study."}, "[2]": {"test": "LC-MS/MS quantitation of DTIC in tumor, plasma, liver and adipose tissue", "description": "The samples were introduced to the mass spectrometer through a reversed-phase column (Agilent ZORBAX SB-C18, 2.1 × 30 mm, 3.5 μm). The mobile phase containing water and acetonitrile with 0.1% formic acid was infused at a flow rate of 0.4 ml min^−1. The MS scan range was set between 100 and 1000 m/z, with the dry gas flow and dry gas temperature maintained at 6 L min^−1 and 320 °C, respectively. […] All the mass spectrometric data were acquired in positive ionization mode using Agilent MassHunter data acquisition software, version B.05.01. MassHunter Quantitative analysis software, version B.07.00 was used for the generation of calibration curves and subsequent quantitation of DTIC in the samples. Calibration curves were created using linear fitting, 1/x weighting and including the origin. Calibration standards (0.5–800 ng) were prepared using standard DTIC. All the samples including the standard DTIC preparations were spiked with leucine enkephalin (10 ng) as internal standard. […] The quantitation capability of this method is evaluated by using samples with known concentrations."}},
  "data": [
    {"smiles": "CN(C)/N=N/c1[nH]cnc1C(N)=O", "note": "[DTIC, Dacarbazine]", "values": [
      {"measurement": "Effect on survival", "setting": "B16F1 cells; CM from differentiated ID adipocytes", "result": "did not remarkably affect"},
      {"measurement": "Improvement of sensitivity to DTIC", "setting": "B16F1 cells; CM from differentiated adipocytes, simultaneous treatment with all three inhibitors", "result": "approximately 80%"},
      {"measurement": "Survival remaining", "setting": "B16F1 cells; CM from orlistat-treated differentiating adipocytes, DTIC at 649 μM", "result": "approximately 30%"},
      {"measurement": "Body weight", "setting": "[1]; HFD-HFD (continued on HFD), orlistat 10 mg/kg oral alternate days, DTIC 80 mg/kg i.p. 5 days", "result": "32.28 ± 1.70 (p = 0.999) g"},
      {"measurement": "Blood glucose", "setting": "[1]; HFD-HFD", "result": "194.50 ± 6.98 (p = 0.9997) mg/dl"},
      {"measurement": "Serum IL-6", "setting": "[1]; HFD-HFD", "result": "44.99 ± 1.58 (p = 0.9999) pg/ml"},
      {"measurement": "Serum LDLc", "setting": "[1]; HFD-HFD", "result": "85.01 ± 1.17 (p = 0.9999) mg/dl"},
      {"measurement": "Serum TG", "setting": "[1]; HFD-HFD", "result": "84.17 ± 1.15 (p = 0.9999) mg/dl"},
      {"measurement": "Serum TNF-α", "setting": "[1]; HFD-HFD", "result": "28.67 ± 0.99 (p = 0.9708) pg/ml"},
      {"measurement": "Serum adiponectin", "setting": "[1]; HFD-HFD", "result": "3421 ± 198 (p = 0.9999) ng/ml"},
      {"measurement": "Serum cholesterol", "setting": "[1]; HFD-HFD", "result": "120.54 ± 4.49 (p = 0.9995) mg/dl"},
      {"measurement": "Serum free fatty acids", "setting": "[1]; HFD-HFD", "result": "2.20 ± 0.04 (p = 0.9993) mM/l"},
      {"measurement": "Serum insulin", "setting": "[1]; HFD-HFD", "result": "0.385 ± 0.016 (p = 0.8701) μg/l"},
      {"measurement": "Serum leptin", "setting": "[1]; HFD-HFD", "result": "43.11 ± 1.65 (p = 0.9999) ng/ml"},
      {"measurement": "Serum resistin", "setting": "[1]; HFD-HFD", "result": "2.23 ± 0.11 (p = 0.9999) ng/ml"},
      {"measurement": "Blood glucose", "setting": "[1]; HFD-ND", "result": "177.5 ± 5.05 (p = 0.0001) mg/dl"},
      {"measurement": "Serum IL-6", "setting": "[1]; HFD-ND", "result": "35.59 ± 2.38 (p < 0.0001) pg/ml"},
      {"measurement": "Serum TG", "setting": "[1]; HFD-ND", "result": "69.15 ± 2.41 (p < 0.0001) mg/dl"},
      {"measurement": "Serum TNF-α", "setting": "[1]; HFD-ND", "result": "16.17 ± 1.91 (p < 0.0001) pg/ml"},
      {"measurement": "Serum adiponectin", "setting": "[1]; HFD-ND", "result": "5133 ± 228 (p < 0.0001) ng/ml"},
      {"measurement": "Serum free fatty acids", "setting": "[1]; HFD-ND", "result": "1.81 ± 0.05 (p < 0.0001) mM/l"},
      {"measurement": "Serum insulin", "setting": "[1]; HFD-ND", "result": "0.301 ± 0.02 (p < 0.0001) μg/l"},
      {"measurement": "Serum leptin", "setting": "[1]; HFD-ND", "result": "34.54 ± 2.3 (p < 0.0001) ng/ml"},
      {"measurement": "Serum resistin", "setting": "[1]; HFD-ND", "result": "1.82 ± 0.10 (p < 0.0001) ng/ml"},
      {"measurement": "DTIC level in the plasma, liver, and adipose tissue", "setting": "[2]; HFD mice compared to ND mice", "result": "higher"},
      {"measurement": "Level of DTIC in tumors from HFD mice, fold less than in ND counterparts", "setting": "[2]; tumor, mass spectrometry", "result": "~ 6 fold"}
    ]}
  ]
}
